The test system of test [1] is P. aeruginosa strain CFS-1292. Nature of the test: Checkerboard assay (FICI) with antibiotics, P. aeruginosa. It is filed as cell-based, Pseudomonas aeruginosa. The conditions noted are these: for Antibiotic FIC: P. aeruginosa CFS-1292; for Antibiotic MIC in checkerboard: P. aeruginosa CFS-1292, CAA + […] human serum. The method, then: Any known method to assess MIC may be used.
Checkerboards are constructed by first preparing columns of e.g., a 96-well polypropylene microtiter plate, wherein each well has the same amount of antibiotic diluted 2-fold along the horizontal axis. […] Bacteria are added to the drug combinations at concentrations of 1×10^5 […] in CAA, for example, with or without human serum or pulmonary surfactant. […] Summation fractional inhibitory concentrations (ΣFICs) are calculated for each drug and the minimum ΣFIC value (ΣFICmin) is used to determine the effect of the Chp peptide/antibiotic combination.
(§1) Checkerboard assays. […] Checkerboards were constructed by first preparing columns of a 96-well polypropylene microtiter plate, in which each well had the same amount of antibiotic diluted 2-fold along the horizontal axis. […] Summation fractional inhibitory concentration index (FICIs) were calculated for each drug and the minimum FICI was used to determine synergy. FICIs were calculated as follows: FICI=FIC A+FIC B, where FIC A is the MIC of each antibiotic in the combination/MIC of the each antibiotic alone, and FIC B is the MIC of each Chp peptide in the combination/MIC of each Chp peptide alone. The combination is considered synergistic when the FICI is ≤0.5, strongly additive when the FICI is >0.5 to <1, additive with the FICI is 1-<2, and antagonistic when the FICI is ≥2.
In the checkerboard assay, fractional inhibitory concentration index (FICI) values are calculated.

The test system of test [2] is Acinetobacter baumannii strain 30. Kind of test: Checkerboard assay (FICI) with antibiotics, A. baumannii. It is filed as cell-based. The conditions noted are these: checkerboard. The protocol:
as §1
The results are shown below in Tables 22-27.

In test [3] the test system is Klebsiella pneumoniae strain 1139. Kind of test: Checkerboard assay (FICI) with antibiotics, K. pneumoniae. It is filed as cell-based. The method, then:
as §1

Test [4] has as its system carbapenem-resistant P. aeruginosa clinical isolate CFS-1292. Nature of the test: MIC by modified CLSI broth microdilution against P. aeruginosa CFS-1292 (CAA, CAA + human serum). It is filed as cell-based, Pseudomonas aeruginosa. The conditions noted are these: for MIC (μg/mL) against CFS-1292 in 100% CAA (1st run/2nd run): 1st run or single value.
The test system of a further test is M. smegmatis. Kind of test: 45 hr MIC against M. smegmatis (NTM), Mueller Hinton broth. The test is classed as cell-based, Mycobacterium smegmatis. The conditions noted are these: M. smegmatis MC^2 155, Run #1.
Setting [5] is: checkerboard, in combination with Chp4-M1.
The mark [6] stands for this setting: checkerboard, in combination with Chp6-M1.
Setting [7] is: checkerboard, in combination with Chp10-M1.
Setting [8] is: checkerboard, in combination with Unp2-M1.

This note sets out measurements from patent US20220401514A1, “ANTIMICROBIAL, BACTERIOPHAGE-DERIVED POLYPEPTIDES AND THEIR USE AGAINST GRAM-NEGATIVE AND ACID-FAST BACTERIA” (CONTRAFECT CORPORATION, priority 2019, published 2022).

Where only a bound is given, the exact number is not on record here.

With `NCC[C@H](O)C(=O)N[C@@H]1C[C@H](N)[C@@H](O[C@H]2O[C@H](CN)[C@@H](O)[C@H](O)[C@H]2O)[C@H](O)[C@H]1O[C@H]1O[C@H](CO)[C@@H](O)[C@H](N)[C@H]1O` [Amikacin], the “Antibiotic FIC” value in test [1] (combined with Chp2-M1) turned out to be 0.25; in test [1] (combined with Chp2), 0.25; in test [1] (combined with Chp4-M1), 0.0625; in test [1] (combined with Chp6-M1), 0.25; in test [1] (combined with Chp10-M1) it was 0.125; in test [1] (combined with Unp2-M1) it was 0.25. The “Antibiotic FIC” value in test [2] (in combination with Chp2) came out at 0.25; in test [2] (in combination with Chp2-M1), 0.5; in test [2] (in combination with Chp4-M1) it was 0.5; in test [2] (in combination with Chp6-M1) it was 0.5; in test [2] (in combination with Chp10-M1), 0.5; in test [2] (in combination with Unp2-M1) it was 0.5. Besides, the “Antibiotic MIC in checkerboard” value worked out at 0.5 µg/mL in test [1] (combined with Chp2-M1); 0.5 µg/mL in test [1] (combined with Chp2); 0.5 µg/mL in test [1] (combined with Chp6-M1); 0.25 µg/mL in test [1] (combined with Chp10-M1); 0.5 µg/mL in test [1] (combined with Unp2-M1).
For the molecule `CC[C@H]1OC(=O)[C@H](C)[C@@H](O[C@H]2C[C@@](C)(OC)[C@@H](O)[C@H](C)O2)[C@H](C)[C@@H](O[C@@H]2O[C@H](C)C[C@H](N(C)C)[C@H]2O)[C@](C)(O)C[C@@H](C)CN(C)[C@H](C)[C@@H](O)[C@]1(C)O` [Azithromycin], the “Antibiotic FIC” value in test [1] (combined with Chp2) was found to be 0.25; in test [1] (combined with Chp4-M1) it was 0.25; in test [1] (combined with Chp6-M1), 0.25; in test [2] (in combination with Chp2), 0.5; in test [2] (in combination with Chp2-M1), 0.25; in test [2] (in combination with Chp4-M1), 0.25. Also, the “Antibiotic FIC” value is 0.25 in test [2] (in combination with Chp6-M1); 0.5 in test [2] (in combination with Chp10-M1); 0.5 in test [2] (in combination with Unp2-M1); 0.25 in test [3] (setting [5]); 0.5 in test [3] (setting [6]); 0.25 in test [3] (combined with Chp2-M1). In addition, the “Antibiotic MIC” value in test [2] (in combination with Chp2), in test [2] (in combination with Chp2-M1), in test [2] (in combination with Chp4-M1), in test [2] (in combination with Chp6-M1), in test [2] (in combination with Chp10-M1) and in test [2] (in combination with Unp2-M1) was 0.5 µg/mL each time. In addition, the “Antibiotic MIC” value in test [3] (setting [5]), in test [3] (setting [6]), in test [3] (setting [7]) and in test [3] (setting [8]) was 1 µg/mL throughout. The “Antibiotic MIC in checkerboard” value in test [3] (combined with Chp2) and in test [3] (combined with Chp2-M1) was 1 µg/mL in each case.
Take `C[C@H]1[C@H](NC(=O)/C(=N\OC(C)(C)C(=O)O)c2csc(N)n2)C(=O)N1S(=O)(=O)O` [Aztreonam]: the “Antibiotic FIC” value in test [1] (combined with Chp2-M1) came out at 0.5; in test [1] (combined with Chp2) it was 0.25; in test [1] (combined with Chp4-M1), 0.25; in test [1] (combined with Chp6-M1) it was 0.25; in test [1] (combined with Chp10-M1), 0.25; in test [2] (in combination with Chp2), 0.25. For the same molecule, the “Antibiotic FIC” value in test [2] (in combination with Chp2-M1) is listed as 0.25; in test [2] (in combination with Chp4-M1) it was 0.25; in test [2] (in combination with Chp6-M1), 0.25; in test [2] (in combination with Chp10-M1), 0.25; in test [2] (in combination with Unp2-M1), 0.25; in test [3] (setting [5]), 0.5. For the same molecule, the “Antibiotic FIC” value came out at 0.25 in test [3] (setting [6]); 0.25 in test [3] (setting [7]); 0.007812 in test [3] (setting [8]); 0.5 in test [3] (combined with Chp2); 0.5 in test [3] (combined with Chp2-M1). For the same molecule, the “Antibiotic MIC” value amounted to 8 µg/mL in test [2] (in combination with Chp2); 8 µg/mL in test [2] (in combination with Chp2-M1); 16 µg/mL in test [2] (in combination with Chp4-M1); 8 µg/mL in test [2] (in combination with Chp6-M1); 8 µg/mL in test [2] (in combination with Chp10-M1); 16 µg/mL in test [2] (in combination with Unp2-M1). The “Antibiotic MIC” value in test [3] (setting [5]), in test [3] (setting [6]), in test [3] (setting [7]) and in test [3] (setting [8]) was 0.007812 µg/mL throughout. Further, the “Antibiotic MIC in checkerboard” value in test [3] (combined with Chp2) and in test [3] (combined with Chp2-M1) was 0.007812 µg/mL in each case.
Turning to `C[C@H]1COc2c(N3CCN(C)CC3)c(F)cc3c(=O)c(C(=O)O)cn1c23` [Levofloxacin], the “Antibiotic FIC” value was 0.25 in test [1] (combined with Chp2-M1); 0.25 in test [1] (combined with Chp2); 0.5 in test [1] (combined with Chp4-M1); 0.25 in test [1] (combined with Chp6-M1); 0.25 in test [1] (combined with Chp10-M1); 0.25 in test [1] (combined with Unp2-M1). Further, the “Antibiotic FIC” value in test [2] (in combination with Chp2), in test [2] (in combination with Chp2-M1), in test [2] (in combination with Chp4-M1), in test [2] (in combination with Chp6-M1), in test [2] (in combination with Chp10-M1) and in test [2] (in combination with Unp2-M1) was 0.25 in each case. Also, the “Antibiotic FIC” value in test [3] (setting [5]) was found to be 0.25; in test [3] (setting [6]), 0.25; in test [3] (setting [7]) it was 0.125; in test [3] (setting [8]), 0.01562; in test [3] (combined with Chp2), 0.25; in test [3] (combined with Chp2-M1), 0.25. Moreover, the “Antibiotic MIC” value in test [3] (setting [5]) amounted to 0.007812 µg/mL; in test [3] (setting [6]), 0.007812 µg/mL; in test [3] (setting [7]), 0.007812 µg/mL; in test [3] (setting [8]) it was 0.01562 µg/mL. Moreover, the “Antibiotic MIC in checkerboard” value in test [3] (combined with Chp2) and in test [3] (combined with Chp2-M1) was 0.007812 µg/mL throughout.
Turning to `CCN1CCN(C(=O)N[C@@H](C(=O)N[C@@H]2C(=O)N3[C@@H]2SC(C)(C)[C@@H]3C(=O)O)c2ccccc2)C(=O)C1=O` [Piperacillin], the “Antibiotic FIC” value in test [1] (combined with Chp2-M1) was 0.125; in test [1] (combined with Chp2), 0.5; in test [1] (combined with Chp4-M1) it was 0.5; in test [1] (combined with Chp6-M1), 0.25; in test [1] (combined with Chp10-M1) it was 0.25; in test [1] (combined with Unp2-M1), 0.25. The “Antibiotic FIC” value in test [2] (in combination with Chp2) was 0.25; in test [2] (in combination with Chp2-M1), 0.25; in test [2] (in combination with Chp4-M1), 0.25; in test [2] (in combination with Chp6-M1) it was 0.5; in test [2] (in combination with Chp10-M1), 0.25; in test [2] (in combination with Unp2-M1) it was 0.25. For the same molecule, the “Antibiotic MIC in checkerboard” value in test [1] (combined with Chp2-M1) is 1 µg/mL; in test [1] (combined with Chp2), 4 µg/mL; in test [1] (combined with Chp4-M1), 8 µg/mL; in test [1] (combined with Chp6-M1), 2 µg/mL; in test [1] (combined with Chp10-M1), 2 µg/mL; in test [1] (combined with Unp2-M1), 2 µg/mL. In addition, the “Antibiotic MIC” value in test [2] (in combination with Chp2) turned out to be 8 µg/mL; in test [2] (in combination with Chp2-M1) it was 8 µg/mL; in test [2] (in combination with Chp4-M1), 8 µg/mL; in test [2] (in combination with Chp6-M1), 16 µg/mL; in test [2] (in combination with Chp10-M1), 4 µg/mL; in test [2] (in combination with Unp2-M1), 8 µg/mL.
Regarding Gentamicin, the “Antibiotic FIC” value in test [1] (combined with Chp2) is on record as 0.5; in test [1] (combined with Unp2-M1), 0.25; in test [2] (in combination with Chp2), 0.25; in test [2] (in combination with Chp2-M1), 0.5; in test [2] (in combination with Chp4-M1) it was 0.5; in test [2] (in combination with Chp6-M1), 0.5. For the same molecule, the figures for the “Antibiotic FIC” value in test [2] (in combination with Chp10-M1) and in test [2] (in combination with Unp2-M1) were 0.01562 and 0.5, respectively. In addition, the “Antibiotic MIC” value was determined as 0.03125 µg/mL in test [2] (in combination with Chp2); 0.03125 µg/mL in test [2] (in combination with Chp2-M1); 0.03125 µg/mL in test [2] (in combination with Chp4-M1); 0.03125 µg/mL in test [2] (in combination with Chp6-M1); 0.0009766 µg/mL in test [2] (in combination with Chp10-M1); 0.03125 µg/mL in test [2] (in combination with Unp2-M1).
“MKKRTKALLPYAVFIILSFQLTLLTALFMYYHYTF [Lvp2]”: in test [4], the “MIC (μg/mL) against CFS-1292 in 100% CAA (1st run/2nd run)” value is 32 µg/mL and the “MIC (μg/mL) against CFS-1292 in CAA + […] human serum” value was 8 µg/mL.
Consider “MRKKMHKSLDKRVFNRTAKKSKKINVNPVVYRGGIRL [CDL907]”, for which, in test [4], the “MIC (μg/mL) against CFS-1292 in 100% CAA (1st run/2nd run)” value came out at 8 µg/mL and the “MIC (μg/mL) against CFS-1292 in CAA + […] human serum” value turned out to be 0.5 µg/mL. In addition, the “45 hr MIC” value in the test on M. smegmatis is greater than 128 µg/mL.
